The source of these data is US9164109B2, “Use of probes for unbound metabolites” (priority 2006, dated 2015).

The target of this data set is T1, HSA (Homo sapiens, UniProt P02768).
T1 construct: from tissue; host or cells: blood plasma of healthy adult donors, diluted to 1%
Nature of the data set: Equilibrium-binding model of UCB and HSA. The settings on record: value used to calculate model [UCBf], [HSA]=6.5 μM, FIG. 2. On the procedure:
Investigations of the effects of FFA on our UCB probes are necessary because the probes are constructed from FABP mutants and FFA are abundant in plasma. Interference testing of every possible component of plasma, however, is not feasible. Therefore UCBf was measured in samples of diluted plasma, from 6 healthy adult donors, titrated with UCB. Because the [UCBf] is determined by the UCB:HSA ratio, the [HSA] of each plasma sample was measured using a Bromcresol Green Albumin Determination Kit from Sigma-Aldrich. HSA concentrations were similar for all samples and ranged from 620 to 680 μM. Plasma [FFAu] was measured with ADIFAB2 and ranged from 1.0 to 3.6 nM. The L24P19C7 probe at 0.5 μM was used to measure [UCBf] in 1% plasma (i.e., 6.2 to 6.8 μM HSA) titrated with UCB (FIG. 2). This probe has the following mutations with reference to rat Intestinal Fatty Acid Binding Protein (SEQ ID NO: 4): Y14R M18L L38V V60R A72L A73F R106C Q115R and Y117D. Without the addition of UCB, all samples yielded a [UCBf] of nearly zero, in good agreement with the 0 to 1 nM [UCBf] expected for a healthy adult. […] Indeed, the increase was consistent with the change in [UCBf] predicted using the equilibrium-binding model, confirming the accuracy of the probe in plasma.

T1 sequence (P02768 25-609): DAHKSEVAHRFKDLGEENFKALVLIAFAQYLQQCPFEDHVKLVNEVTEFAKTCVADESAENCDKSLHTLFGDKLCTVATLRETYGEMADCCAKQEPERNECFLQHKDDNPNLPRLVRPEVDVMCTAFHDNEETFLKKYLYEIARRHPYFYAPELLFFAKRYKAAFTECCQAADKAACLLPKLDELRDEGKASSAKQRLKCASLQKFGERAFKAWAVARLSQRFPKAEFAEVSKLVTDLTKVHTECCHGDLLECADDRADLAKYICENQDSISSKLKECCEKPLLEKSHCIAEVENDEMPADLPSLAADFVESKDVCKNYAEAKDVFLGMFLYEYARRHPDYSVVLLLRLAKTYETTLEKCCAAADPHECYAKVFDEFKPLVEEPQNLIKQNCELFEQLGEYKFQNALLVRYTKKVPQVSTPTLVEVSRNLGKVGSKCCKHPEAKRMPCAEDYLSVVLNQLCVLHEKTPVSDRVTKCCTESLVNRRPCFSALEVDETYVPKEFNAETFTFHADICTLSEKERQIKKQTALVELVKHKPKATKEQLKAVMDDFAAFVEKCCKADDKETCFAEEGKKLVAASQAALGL

As a reminder, the Kd is the equilibrium constant for the complex coming apart. Turning to `C=CC1=C(C)/C(=C/c2[nH]c(Cc3[nH]c(/C=C4\NC(=O)C(C)=C4C=C)c(C)c3CCC(=O)O)c(CCC(=O)O)c2C)NC1=O` [UCB, unconjugated bilirubin], the Kd is 19 nM.
